Source: ChEMBL document CHEMBL3045534, “Synthesis and Acaricidal Activity of N-(1,3,4-Thiadiazol-2-yl)carboxamides” (2003)

What was measured:
Type in all cases: functional
Tetranychus urticae [1] = experiment: Acaricidal activity against Tetranychus urticae (two-spotted spider mite) assessed as mite mortality at 500 ppm relative to untreated control
Tetranychus urticae [2] = experiment: Acaricidal activity against Tetranychus urticae (two-spotted spider mite) assessed as mite mortality at 12.5 ppm relative to untreated control
Tetranychus urticae [3] = experiment: Acaricidal activity against Tetranychus urticae (two-spotted spider mite) assessed as mite mortality at 50 ppm relative to untreated control
Tetranychus urticae [4] = experiment: Acaricidal activity against Tetranychus urticae (two-spotted spider mite) assessed as mite mortality at 200 ppm relative to untreated control
Tetranychus urticae [5] = experiment: Acaricidal activity against Tetranychus urticae (two-spotted spider mite) assessed as mite mortality at 3.13 ppm relative to untreated control

| Structure (SMILES) | mortality at 500 ppm (Tetranychus urticae [1]) [%] | mortality at 12.5 ppm (Tetranychus urticae [2]) [%] | mortality at 50 ppm (Tetranychus urticae [3]) [%] | mortality at 200 ppm (Tetranychus urticae [4]) [%] | mortality at 3.13 ppm (Tetranychus urticae [5]) [%] |
| --- | --- | --- | --- | --- | --- |
| CC(C)(C)CC(=O)Nc1nnc(C(F)(F)F)s1 | 0 | – | – | – | – |
| CC(C)CC(Br)C(=O)Nc1nnc(C(F)(F)F)s1 (stereo not given) | 0 | – | – | – | – |
| CCC(C)C(Br)C(=O)Nc1nnc(C(F)(F)F)s1 (stereo not given) | 100 | 30 | 80 | 100 | – |
| CC(C)(C)C(Br)C(=O)Nc1nnc(C(F)(F)F)s1 (stereo not given) | 100 | 30 | 100 | 100 | – |
| CCCCCC(Br)C(=O)Nc1nnc(C(F)(F)F)s1 (stereo not given) | 80 | 0 | 30 | 80 | – |
| O=C(Nc1nnc(C(F)(F)F)s1)C(Br)C1CCCC1 (stereo not given) | 30 | – | – | 0 | – |
| CC(CC(Br)C(=O)Nc1nnc(C(F)(F)F)s1)C1CCCCC1 (stereo not given) | 30 | – | – | 0 | – |
| CC(C)(C)C(Br)(Br)C(=O)Nc1nnc(C(F)(F)F)s1 | 100 | 30 | 100 | 100 | – |
| CC(C)(C)C(Cl)C(=O)Nc1nnc(C(F)(F)F)s1 (stereo not given) | 100 | 30 | 100 | 100 | – |
| CC(C)(C)C(Br)C(=O)Nc1nnc(C(F)(F)C(F)(F)F)s1 (stereo not given) | 100 | 30 | 80 | 80 | – |
| CC(C)(C)C(Br)C(=O)Nc1nnc(C(F)(F)C(F)(F)C(F)(F)F)s1 (stereo not given) | 80 | 30 | 30 | 30 | – |
| CC(C)(C)C(Br)C(=O)Nc1nnc(C(F)(F)C(F)(F)C(F)(F)C(F)(F)F)s1 (stereo not given) | 0 | – | – | – | – |
| CC(C)(C)C(Br)C(=O)Nc1nnc(C(F)(F)C(F)(F)C(F)(F)C(F)(F)C(F)(F)F)s1 (stereo not given) | 0 | – | – | – | – |
| CC(C)(C)C(Br)C(=O)Nc1nncs1 (stereo not given) | 0 | – | – | – | – |
| Cc1nnc(NC(=O)C(Br)C(C)(C)C)s1 (stereo not given) | 0 | – | – | – | – |
| CCc1nnc(NC(=O)C(Br)C(C)(C)C)s1 (stereo not given) | 0 | – | – | – | – |
| CC(C)(C)C(Br)(Br)C(=O)Nc1nnc(C(F)(F)C(F)(F)F)s1 | 100 | 80 | 100 | 100 | 30 |
| CC(C)(C)C(Br)(Br)C(=O)Nc1nnc(C(F)(F)C(F)(F)C(F)(F)F)s1 | 100 | 0 | 80 | 100 | – |
| CC(C)(C)C(Br)(Br)C(=O)Nc1nnc(C(F)(F)C(F)(F)C(F)(F)C(F)(F)F)s1 | 100 | 30 | 100 | 100 | – |
| O=C(CBr)Nc1nnc(C(F)(F)F)s1 | 0 | – | – | – | – |
| CC(Br)C(=O)Nc1nnc(C(F)(F)F)s1 (stereo not given) | 0 | – | – | – | – |
| CCC(Br)C(=O)Nc1nnc(C(F)(F)F)s1 (stereo not given) | 0 | – | – | – | – |
| CCCC(Br)C(=O)Nc1nnc(C(F)(F)F)s1 (stereo not given) | 30 | – | – | 0 | – |
| CC(C)C(Br)C(=O)Nc1nnc(C(F)(F)F)s1 (stereo not given) | 100 | – | – | 30 | – |
| CCCCC(Br)C(=O)Nc1nnc(C(F)(F)F)s1 (stereo not given) | 0 | – | – | – | – |
